Reference: PubChem BioAssay AID328 (DTP/NCI, 2004)
Several values for one entry are separate records, joined by “and”; a condition that tells them apart may be missing. Identical values can stand only once. Toxic doses and inconclusive results are not listed. How the source made its calls: active means survival T/C of 150% or more; inactive means T/C below 125% in these data.

System: BDF1 mice, P388 leukemia ip, median survival T/C
Test: NCI In Vivo Anticancer Drug Screen. Data for tumor model P388 Leukemia (intraperitoneal) in B6D2F1 (BDF1) mice
Settings: endpoint: median survival time, higher = longer survival
Summary of the method: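 Read-out is survival of treated animals expressed relative to the vehicle group, as a T/C ratio.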

Measured: T/C

C/C=C/C(=O)OCCC[N+](C)(C)C
inactive: dose: 0.09 mg/kg/injection, schedule: Q01DX009 (ip), vehicle: saline 95 % of control | dose: 0.19 mg/kg/injection, schedule: Q01DX009 (ip), vehicle: saline 92 % of control | dose: 0.39 mg/kg/injection, schedule: Q01DX009 (ip), vehicle: saline 96 % of control and 109 % of control | dose: 0.78 mg/kg/injection, schedule: Q01DX009 (ip), vehicle: saline 96 % of control and 101 % of control | dose: 1.56 mg/kg/injection, schedule: Q01DX009 (ip), vehicle: saline 96 % of control and 111 % of control | dose: 3.12 mg/kg/injection, schedule: Q01DX009 (ip), vehicle: saline 100 % of control and 105 % of control | dose: 6.25 mg/kg/injection, schedule: Q01DX009 (ip), vehicle: saline 92 % of control

[N-]=[N+]=[N-]
inactive: dose: 2.5 mg/kg/injection, schedule: Q01DX009 (ip), vehicle: saline 90 % of control | dose: 5.0 mg/kg/injection, schedule: Q01DX009 (ip), vehicle: saline 90 % of control | dose: 5.0 mg/kg/injection, schedule: Q04DX003 (ip), vehicle: saline 112 % of control | dose: 10.0 mg/kg/injection, schedule: Q04DX003 (ip), vehicle: saline 95 % of control

CCNC(C)(C)C(SSSC(c1cccs1)C(C)(C)NCC)c1cccs1 (configuration not stated)
inactive: dose: 100.0 mg/kg/injection, schedule: Q01DX001 (ip), vehicle: saline 104 % of control | dose: 200.0 mg/kg/injection, schedule: Q01DX001 (ip), vehicle: saline 118 % of control

COc1cc2oc(=O)c3c(c2cc1OC)CCN(CCN1CCCCC1)C3
inactive: dose: 50.0 mg/kg/injection, schedule: Q04DX002 (ip), vehicle: saline 101 % of control | dose: 100.0 mg/kg/injection, schedule: Q04DX002 (ip), vehicle: saline 100 % of control | dose: 200.0 mg/kg/injection, schedule: Q04DX002 (ip), vehicle: saline 108 % of control

CC(C)=CCNc1ncnc2nc[nH]c12
inactive: dose: 10.0 mg/kg/injection, schedule: Q01DX009 (ip), vehicle: saline with Tween-80 104 % of control | dose: 20.0 mg/kg/injection, schedule: Q01DX009 (ip), vehicle: saline with Tween-80 104 % of control | dose: 20.0 mg/kg/injection, schedule: Q04DX003 (ip), vehicle: saline with Tween-80 95 % of control | dose: 40.0 mg/kg/injection, schedule: Q04DX003 (ip), vehicle: saline with Tween-80 95 % of control | dose: 80.0 mg/kg/injection, schedule: Q04DX003 (ip), vehicle: saline with Tween-80 100 % of control

CC1(C)CCCC(C(Cc2ccc3ccccc3n2)c2ccccc2)C1=O (configuration not stated)
inactive: dose: 100.0 mg/kg/injection, schedule: Q01DX001 (ip), vehicle: saline with Tween-80 98 % of control | dose: 200.0 mg/kg/injection, schedule: Q01DX001 (ip), vehicle: saline with Tween-80 96 % of control | dose: 400.0 mg/kg/injection, schedule: Q01DX001 (ip), vehicle: saline with Tween-80 88 % of control

CC1(C)N=C(N)N=C(N)N1c1ccc(CCCCc2ccc(Cl)c(S(=O)(=O)F)c2)c(Cl)c1
active: dose: 12.0 mg/kg/injection, schedule: Q01DX009 (ip), vehicle: saline 163 % of control | dose: 12.5 mg/kg/injection, schedule: Q04DX003 (ip), vehicle: saline 181 % of control | dose: 18.0 mg/kg/injection, schedule: Q01DX009 (ip), vehicle: saline 159 % of control
inactive: dose: 0.88 mg/kg/injection, schedule: Q01DX009 (ip), vehicle: saline 118 % of control | dose: 1.32 mg/kg/injection, schedule: Q01DX009 (ip), vehicle: saline 109 % of control | dose: 2.36 mg/kg/injection, schedule: Q04DX003 (ip), vehicle: saline 106 % of control | dose: 3.56 mg/kg/injection, schedule: Q04DX003 (ip), vehicle: saline 123 % of control | dose: 5.33 mg/kg/injection, schedule: Q04DX003 (ip), vehicle: saline 108 % of control | dose: 8.0 mg/kg/injection, schedule: Q04DX003 (ip), vehicle: saline 115 % of control | dose: 8.33 mg/kg/injection, schedule: Q04DX003 (ip), vehicle: saline 120 % of control | dose: 25.0 mg/kg/injection, schedule: Q01DX009 (ip), vehicle: saline 104 % of control | dose: 50.0 mg/kg/injection, schedule: Q01DX009 (ip), vehicle: saline 104 % of control | dose: 50.0 mg/kg/injection, schedule: Q04DX003 (ip), vehicle: saline 113 % of control
